Experimental data as given in patent publication US7994365B2, “Basic acetophenones as inhibitors of NO-synthases” (Christian-Albrechts-Universitaet Zu Kiel, priority 2006, dated 2011).
Counter-ions that a name gives are not always drawn.

Molecular target: T1, bNOS (Homo sapiens, UniProt P29475)
T1 construct: purchased Axxora GmbH
Assay: Griess assay: NO-synthase converts L-arginine to L-citrullin and NO, activity measured by nitrite formation
Format: biochemical
Conditions: maximum inhibition reached; recombinant human isoenzyme, 30 min at 37° C., controls without inhibitor = 100%
Experimental: Although the compound is known from the literature Niwa, H., 1957, Tohoku Yakka Daigaku, 4, 69-78), as yet no NOS-inhibiting action has been described.
In both FIGS. 1 and 2 the bNOS activity is measured by means of nitrite formation. Nitrite is the end product of nitrogen monoxide in oxygen-containing, aqueous solution. Control incubations with all the cofactors, but without inhibitor addition, were 100% established. These are mean values +/− standard deviation of three incubations, in each case measured twice.
The incubations of the synthesized substances with the NO-synthases were carried out as follows: […]
Following preparation, the batches were incubated for 20 min (iNOS and eNOS) or 30 min (bNOS) in the shaking water bath at 37° C. […] After incubating for […] at room temperature, the solutions were measured at a wavelength of 543 nm and the indicated non-enzyme-containing sample was used as the blank reading. […] The nitrite can be quantitatively determined by reaction with sulphanilamide and naphthyl ethylene diamine in an acid medium. This leads to an azo dye, which can be measured spectrophotometrically. […] The relative nitrite formations were determined for the control batches containing no inhibitors. […]

T1 sequence (P29475 whole entry): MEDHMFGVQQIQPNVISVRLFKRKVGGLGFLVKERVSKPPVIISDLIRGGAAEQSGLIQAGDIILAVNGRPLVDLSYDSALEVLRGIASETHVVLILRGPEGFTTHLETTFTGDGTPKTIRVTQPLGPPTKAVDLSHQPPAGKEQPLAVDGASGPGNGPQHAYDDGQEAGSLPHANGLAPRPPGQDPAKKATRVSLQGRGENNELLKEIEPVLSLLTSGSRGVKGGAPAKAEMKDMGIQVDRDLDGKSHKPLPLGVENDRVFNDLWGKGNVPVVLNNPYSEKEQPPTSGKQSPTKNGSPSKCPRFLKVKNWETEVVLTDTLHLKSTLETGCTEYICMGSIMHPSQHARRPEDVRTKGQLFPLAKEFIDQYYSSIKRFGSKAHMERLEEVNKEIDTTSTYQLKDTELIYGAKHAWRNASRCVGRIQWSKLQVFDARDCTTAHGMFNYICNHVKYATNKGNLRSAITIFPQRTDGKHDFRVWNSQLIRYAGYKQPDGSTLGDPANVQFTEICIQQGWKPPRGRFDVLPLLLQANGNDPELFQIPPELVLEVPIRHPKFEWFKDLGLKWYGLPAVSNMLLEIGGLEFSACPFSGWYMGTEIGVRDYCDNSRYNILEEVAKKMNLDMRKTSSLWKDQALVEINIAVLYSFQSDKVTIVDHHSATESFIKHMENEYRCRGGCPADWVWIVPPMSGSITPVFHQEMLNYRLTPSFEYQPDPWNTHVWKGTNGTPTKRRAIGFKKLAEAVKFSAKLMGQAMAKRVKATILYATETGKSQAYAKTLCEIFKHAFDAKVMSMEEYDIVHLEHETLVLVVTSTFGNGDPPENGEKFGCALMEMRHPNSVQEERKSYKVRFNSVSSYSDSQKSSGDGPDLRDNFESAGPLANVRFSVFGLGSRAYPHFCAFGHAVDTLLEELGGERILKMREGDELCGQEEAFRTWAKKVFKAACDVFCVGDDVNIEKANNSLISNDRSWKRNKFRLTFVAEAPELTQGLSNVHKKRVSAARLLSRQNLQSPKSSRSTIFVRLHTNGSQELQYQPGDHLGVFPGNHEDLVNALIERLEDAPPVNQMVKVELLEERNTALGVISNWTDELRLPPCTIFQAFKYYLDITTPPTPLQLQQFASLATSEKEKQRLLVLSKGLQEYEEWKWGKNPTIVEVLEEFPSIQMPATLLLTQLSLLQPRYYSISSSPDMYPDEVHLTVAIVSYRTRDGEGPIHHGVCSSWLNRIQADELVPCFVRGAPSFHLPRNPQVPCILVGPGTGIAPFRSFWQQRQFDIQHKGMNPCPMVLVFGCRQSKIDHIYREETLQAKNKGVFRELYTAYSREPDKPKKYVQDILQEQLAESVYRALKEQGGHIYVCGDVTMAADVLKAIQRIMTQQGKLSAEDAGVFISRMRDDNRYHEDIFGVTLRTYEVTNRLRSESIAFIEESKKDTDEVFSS

concentration-dependent inhibition of bNOS | Structure (SMILES)
up to 88% | CN(C)CCC(=O)c1ccc(-c2ccc(Br)cc2)cc1 [4′-(4-bromophenyl)-3-dimethylaminopropiophenone hydrochloride]
up to 99% | CN(C)CCCC(=O)c1ccc(-c2ccc(Br)cc2)cc1 [4′-(4-bromophenyl)-4-dimethylaminobutyrophenone hydrochloride]
